Consider ten molecules from patent publication US20230293406A1, “Compositions Comprising (Bio)-Alkanediols and Cooling Agents” (Symrise AG, priority 2020, published 2023).

The structures appear in SMILES notation. ≈ marks a conversion by molar mass, not a printed value. Like-named read-outs stand apart in the source and are kept apart here.

One test concerns Corynebacterium xerosis. As to the kind of experiment: Minimum Inhibitory Concentration (MIC) growth inhibition test and Kull Synergy Index. The conditions noted are these: for MIC: Corynebacterium xerosis, read-out: MIC (ppm) Corynebacterium xerosis (converted). The test is classed as cell-based. As to the method:
(§1) The MIC test is a test on growth inhibition. Estimation of the Minimum Inhibitory Concentration (MIC) is executed in 96 well plates. Through the comparison of bacterial growth with positive and negative controls via optical density (OD), different concentrations of given test substances are evaluated. Bacteria are cultivated under adjusted conditions based on information of the German Collection of Microorganisms and Cell Cultures (DSMZ) and stored in 50% Glycerol prior to use. Afterwards, the following method was applied:
(§2) Adding growth medium (according to microorganism) to each well of the microplate. Adding the test-substances in different concentrations, positive controls (water controls only with medium) and negative controls (benchmarks according to organism). Adding the microorganism in a concentration of 10^6 CFU/ml (CFU=colony forming units). Incubation of the microplates at appropriate conditions.
(§3) According to resulting growth, substance concentrations are labelled either as inhibiting or not and the corresponding MIC is defined as the lowest concentration where a complete growth inhibition is visible. Experiments at concentration limits (highest concentration labelled as growth and lowest concentration labelled as inhibiting) are performed at least twice.
(§4) The synergistic activity of 1,2-alkanediols with cooling compounds was determined by measuring the corresponding minimum inhibitory concentrations (MIC values) according to the method described above for antimicrobial activity: Minimum Inhibitory Concentration (MIC)
(§5) In order to calculate the synergy index with MIC values, the Kull equation (I) was used as follows:
(§6) SI=(MICmix×PA)/MICA+(MICmix×PB)/MICB (I)
(§7) wherein • SI is the Synergy Index according to Kull • MICA is the MIC value for Substance A • MICB is the MIC value for Substance B • MICmix is the MIC value for the mixture of substances A and B • PA is the proportion of the substance A in the mixture • PB is the proportion of the substance B in the mixture
(§8) To verify that the tested combinations act synergistically against microorganisms of the natural microbiota of mammalian skin, a corresponding experiment was conducted with representative microbial species. The synergistic activities of mixtures of 1,2-heptanediol and Menthyl lactate as well as for 1,2-nonanediol and Menthyl lactate were determined by measuring the corresponding minimum inhibitory concentrations (MIC values) as indicated in the methods section.

A further test concerns Staphylococcus hominis. The test is described as above. It counts as cell-based. As to the method: as §1, §2, §3, §4, §5, §6, §7, §8
A short description of test [1]: Malodour coverage sensory test, trained panel, filter paper with sweat malodour. The conditions noted are these: for malodour coverage ranking 6 h: after 6 h; for malodour coverage ranking 24 h: after 24 h; for malodour coverage ranking 48 h: after 48 h. The protocol: Malodour coverage was tested in an established setup with a trained panel (n=5-9). For this sensory test, a defined amount of the material was applied on a filter paper together with a defined amount of sweat malodour. For evaluation, the panelists were asked to rate the individual samples on a scale from 0 to 10 (0: odourless; 10: strongest imaginable). The results of the malodour rating for all materials were ranked and the position of the individual materials compared over time. A synergistic effect regarding reduction of malodour was found for all mixtures of Frescolat ML and 1,2-heptanediol after 24 h and 48 h, respectively.

A further test deals with Staphylococcus aureus. As to the kind of experiment: Minimum Inhibitory Concentration (MIC) growth inhibition test, 96 well plates, OD. It counts as cell-based. The note with it: Table 1. The protocol:
(§9) The MIC test is a test on growth inhibition. Estimation of the Minimum Inhibitory Concentration (MIC) is executed in 96 well plates. Through the comparison of bacterial growth with positive and negative controls via optical density (OD), different concentrations of given test substances are evaluated. Bacteria are cultivated under adjusted conditions based on information of the German Collection of Microorganisms and Cell Cultures (DSMZ) and stored in 50% Glycerol prior to use. Afterwards, the following method was applied: Adding growth medium (according to microorganism) to each well of the microplate. Adding the test-substances in different concentrations, positive controls (water controls only with medium) and negative controls (benchmarks according to organism). Adding the microorganism in a concentration of 10^6 CFU/ml (CFU=colony forming units). Incubation of the microplates at appropriate conditions. According to resulting growth, substance concentrations are labelled either as inhibiting or not and the corresponding MIC is defined as the lowest concentration where a complete growth inhibition is visible. Experiments at concentration limits (highest concentration labelled as growth and lowest concentration labelled as inhibiting) are performed at least twice.

Another test has as its system Propionibacterium acnes. As to the kind of experiment: Minimum Inhibitory Concentration (MIC) growth inhibition test. The test is classed as cell-based. The note with it: Cutibacterium acnes; Table 1; >5000: 5000 ppm tested, no growth inhibition. The protocol: as §9
A further test relates to Escherichia coli. The description is as above. The conditions noted are these: Table 1. The test is classed as cell-based. The protocol: as §9
The subject of the next test is Corynebacterium jeikeium. The description is as above. The test is classed as cell-based. The conditions noted are these: Table 1. As to the method: as §9
A further test deals with Candida albicans. Described as above. The note with it: Table 1. It counts as cell-based. The protocol:
as §9

Setting [2] is: Table 3, single substances and mixtures with menthyl lactate.
Setting [3] is: Table 3, single substances and mixtures with menthyl lactate, read-out: MIC (ppm) Staphylococcus hominis.
The mark [4] stands for this setting: Ranking: 1 = lowest malodour to 6 = strongest malodour, Table 6.
The mark [5] stands for this setting: Ranking: 1 = lowest malodour to 6 = strongest malodour, Table 5.
The mark [6] stands for this setting: Table 4, single substances and mixtures with further cooling agents.
[7] abbreviates: Ranking: 1 = highest malodour to 6 = lowest malodour, single diols at 0.5%, Table 7.
Setting [8] is: Ranking: 1 = highest malodour to 6 = lowest malodour, single diols at 0.5%, Table 9.
[9] abbreviates: Ranking: 1 = highest malodour to 6 = lowest malodour, single diols at 0.5%, Table 8.

Consider `CC1CCC(C(C)C)C(OC(=O)C(C)O)C1` (single isomer, unassigned; (-)) [Menthyl lactate, (−)-Menthyl lactate], for which the MIC with Corynebacterium xerosis (setting [2]) and with Staphylococcus hominis (setting [3]) was 250 µg/mL throughout. In addition, the “malodour coverage ranking 6 h” value in test [1] (setting [4]) is listed as 3.6. Besides, the entries for the “malodour coverage ranking 24 h” value in test [1] (setting [5]) and in test [1] (setting [4]) were 3.6 and 3.9, respectively. For the same molecule, in test [1] (setting [5]), the “malodour coverage ranking 48 h” value is listed as 3.1.
Regarding `CCCCCC(O)CO` (stereo not drawn) [1,2-C7, 1,2-heptanediol], the MIC with Corynebacterium xerosis (setting [2]) is 5000 µg/mL; in the test on Staphylococcus hominis (setting [3]), 10000 µg/mL. In the test with Corynebacterium xerosis (setting [6]), the “MIC (ppm) Corynebacterium xerosis” value is 5 000 ppm. The “malodour coverage ranking 6 h” value in test [1] (setting [7]) is recorded as 2.3; in test [1] (setting [8]), 3.5. Besides, the “malodour coverage ranking 24 h” value in test [1] (setting [7]) amounted to 3.4; in test [1] (setting [8]), 3.1; in test [1] (setting [5]), 3.3. Further, in test [1] (setting [5]), the “malodour coverage ranking 48 h” value is 3.3.
Turning to `CCCCCCC(O)CO` (stereo not drawn) [1,2-C8, 1,2-Octanediol], the “malodour coverage ranking 24 h” value in test [1] (setting [9]) is recorded as 2.8.
Turning to `CCCCCCCC(O)CO` (stereo not drawn) [1,2-C9, 1,2-nonanediol], the “MIC (ppm) Corynebacterium xerosis” value with Corynebacterium xerosis (setting [2]) and with Corynebacterium xerosis (setting [6]) was 2 500 ppm in each case. For the same molecule, the MIC with Staphylococcus hominis (setting [3]) was found to be 1000 µg/mL. For the same molecule, the “malodour coverage ranking 6 h” value in test [1] (setting [4]) came to 4.2. The “malodour coverage ranking 24 h” value in test [1] (setting [4]) was 3.9.
Turning to `CCCCCCCCCC(O)CO` (stereo not drawn) [1,2-C11, 1,2-undecandiol], the MIC in the test with Staphylococcus hominis (Table 1, read-out: Minimum Inhibitory Concentration (MIC) Staphylococcus hominis) was determined as 125 µg/mL; against Staphylococcus aureus it was 125 µg/mL (≈ 664 µM); against Propionibacterium acnes, 250 µg/mL (≈ 1330 µM); with Escherichia coli, 250 µg/mL (≈ 1330 µM); in the test on Corynebacterium jeikeium, 250 µg/mL (≈ 1330 µM); against Candida albicans, 64 µg/mL (≈ 340 µM).
With `CCCCC(O)C(C)O` (stereo not drawn) [2,3-C7, 2,3-Heptanediol], in the test on Corynebacterium xerosis (setting [6]), the MIC was 12500 µg/mL. Moreover, in test [1] (setting [7]), the “malodour coverage ranking 6 h” value was determined as 3.2 and the “malodour coverage ranking 24 h” value was found to be 3.5.
Regarding `CCCCCC(O)C(C)O` (stereo not drawn) [2,3-C8, 2,3-Octanediol], the “malodour coverage ranking 6 h” value in test [1] (setting [8]) amounted to 2.3. For the same molecule, the “malodour coverage ranking 24 h” value was found to be 3.2 in test [1] (setting [9]) and 3.4 in test [1] (setting [8]).
Consider `CCCCCCC(O)C(C)O` (stereo not drawn) [2,3-C9, 2,3-nonanediol], for which the MIC in the test with Corynebacterium xerosis (setting [6]) is 2500 µg/mL.
As for `CC1CCC(C(C)C)C(OCC(O)CO)C1` (stereo not drawn) [3-((−)-Menthoxy)propane-1,2-diol], the MIC in the test on Corynebacterium xerosis (setting [6]) is 500 µg/mL.
Turning to `CC1CCC(C(C)C)C(O)C1` (stereo not drawn) [Menthol], in the test on Corynebacterium xerosis (setting [6]), the MIC was 1000 µg/mL.
